Experimental data published in PubChem BioAssay (NCI).
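At the GI50, growth is halved. TGI: concentration producing complete growth inhibition.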

Assays:
Assay in all cases: NCI-60 cell line screen, 384-well format
[1] = test system: BT-549 breast
[2] = test system: HCT-116 colon
[3] = test system: HOP-62 NSCLC
[4] = test system: HS 578T breast
[5] = test system: IGROV1 ovarian
[6] = test system: K-562 leukemia
[7] = test system: KM12 colon
[8] = test system: RXF 393 renal
[9] = test system: SF-268 CNS
[10] = test system: TK-10 renal
[11] = test system: U251 glioblastoma
[12] = test system: UACC-62 melanoma
[13] = test system: UO-31 renal

| Structure (SMILES) | GI50 [1] [µM] | TGI [1] [µM] | GI50 [2] [µM] | TGI [2] [µM] | GI50 [3] [µM] | TGI [3] [µM] | GI50 [4] [µM] | TGI [4] [µM] | GI50 [5] [µM] | TGI [5] [µM] | GI50 [6] [µM] | TGI [6] [µM] | GI50 [7] [µM] | TGI [7] [µM] | GI50 [8] [µM] | TGI [8] [µM] | GI50 [9] [µM] | TGI [9] [µM] | GI50 [10] [µM] | TGI [10] [µM] | also measured |
| --- | --- | --- | --- | --- | --- | --- | --- | --- | --- | --- | --- | --- | --- | --- | --- | --- | --- | --- | --- | --- | --- |
| C[C@@H](Nc1nc(N[C@H](C)C(F)(F)F)nc(-c2cccc(Cl)n2)n1)C(F)(F)F | 32.5 | > 70.3 | 89.3 | > 100 | 28.5 | > 65.4 | 21.1 | 63.2 | > 100 | > 100 | > 100 | > 100 | > 91.7 | > 100 | 24.2 | 58.8 | 39.6 | > 100 | > 52.4 | > 90.1 | GI50 [11]: 40 µM; TGI [11]: > 100 µM; GI50 [12]: 38.6 µM; TGI [12]: > 76.9 µM; GI50 [13]: > 100 µM; TGI [13]: > 100 µM |
| Cc1cc(F)c(C(=O)Nc2cccc(-c3nncn3C(C)C)n2)cc1-n1cnc(C2CC2)c1 | 11.2 | 23.6 | 17.6 | 71.1 | 8.04 | 29.3 | 8.3 | 35.2 | 9.78 | 40.5 | 5.52 | 21.3 | 15.6 | 30.6 | 10.3 | 25.2 | 15 | 47.7 | 14.8 | > 68.2 | GI50 [11]: 11.9 µM; TGI [11]: > 81.6 µM; GI50 [12]: 12.9 µM; TGI [12]: 25.9 µM; GI50 [13]: 10.4 µM; TGI [13]: 23.7 µM |
